Data on four compounds can be found in patent publication US8318759B2, “Pyrrolidine derivatives as NK3 receptor antagonists” (Hoffmann-La Roche Inc., priority 2009, dated 2012).

Each structure is given as a SMILES string. pKi: −log10 of the molar value.

The target in one test is T1, human NK3 receptor (Homo sapiens, UniProt P29371).
T1 construct: expressed in transfected cells; host or cells: HEK293 cells (transient expression), membranes
T1 sequence (P29371 1-465): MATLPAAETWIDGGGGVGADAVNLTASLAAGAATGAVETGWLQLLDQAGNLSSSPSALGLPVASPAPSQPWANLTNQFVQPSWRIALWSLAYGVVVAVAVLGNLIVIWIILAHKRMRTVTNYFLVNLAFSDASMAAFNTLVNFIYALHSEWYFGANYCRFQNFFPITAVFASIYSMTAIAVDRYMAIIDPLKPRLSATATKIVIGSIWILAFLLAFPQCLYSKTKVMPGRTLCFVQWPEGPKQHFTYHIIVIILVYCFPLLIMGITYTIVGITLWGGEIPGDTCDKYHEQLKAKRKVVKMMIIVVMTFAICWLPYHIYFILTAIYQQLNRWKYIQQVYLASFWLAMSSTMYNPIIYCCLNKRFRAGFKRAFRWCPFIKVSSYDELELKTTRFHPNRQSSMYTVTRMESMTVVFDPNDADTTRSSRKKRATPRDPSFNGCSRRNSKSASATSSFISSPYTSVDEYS
Put plainly: [3H]SR142801 competition binding assay. The settings on record: membrane from HEK293 cells transiently expressing recombinant human NK3 receptor; radioligand [3H]SR142801; Ki from IC50 by Cheng-Prussoff equation. Here is the method:
[^3H]SR142801 Competition Binding Assay
hNK3 receptor binding experiment were performed using [^3H]SR142801 (Catalog No. TRK1035, specific activity: 74.0 Ci/mmol, Amersham, GE Healthcare UK limited, Buckinghamshire, UK) and membrane isolated from HEK293 cells transiently expressing recombinant human NK3 receptor. After thawing, the membrane homogenates were centrifuged at 48,000×g for 10 min at 4° C., the pellets were resuspended in the 50 mM Tris-HCl, 4 mM MnCl2, 1 μM phosphoramidon, 0.1% BSA binding buffer at pH 7.4 to a final assay concentration of 5 μg protein/well. […] At the end of the incubation, membranes were filtered onto unitfilter (96-well white microplate with bonded GF/C filter preincubated 1 h in 0.3% PEI+0.3% BSA, Packard BioScience, Meriden, Conn.) with a Filtermate 196 harvester (Packard BioScience) and washed 4 times with ice-cold 50 mM Tris-HCl, pH 7.4 buffer. Nonspecific binding was measured in the presence of 10 μM SB222200 for both radioligands. The radioactivity on the filter was counted (5 min) on a Packard Top-count microplate scintillation counter with quenching correction after addition of 45 μl of microscint 40 (Canberra Packard S. A., Zürich, Switzerland) and shaking for 1 h. Inhibition curves were fitted according to the Hill equation: y=100/(1+(x/IC50)^nH), where nH=slope factor using Excel-fit 4 software (Microsoft). IC50 values were derived from the inhibition curve and the affinity constant (Ki) values were calculated using the Cheng-Prussoff equation Ki=IC50/(1+[L]/KD) where [L] is the concentration of radioligand and KD is its dissociation constant at the receptor, derived from the saturation isotherm. All experiments were performed in duplicate and the mean±standard error (SEM) of the individual Ki values was calculated.

For test [1] the following is noted: phase II trial, cited from earlier work.

Consider `CN(C[C@H]1CN(C(=O)C2CCN(C(=O)C3(C)CC3)CC2)C[C@@H]1c1ccc(Cl)c(Cl)c1)c1ccc(C(F)(F)F)cn1` [Example 62, [4-((3S,4S)-3-(3,4-Dichloro-phenyl)-4-{[methyl-(5-trifluoromethyl-pyridin-2-yl)-amino]-methyl}-pyrrolidine-1-carbonyl)-piperidin-1-yl]-(1-methyl-cyclopropyl)-methanone], for which the pKi at human NK3 receptor is 8.08.
The same measure, in the same setting: the same measure for `CN(C[C@H]1CN(C(=O)C2CCN(C(=O)C3(C)CC3)CC2)C[C@@H]1c1ccc(Cl)c(Cl)c1)c1ccc(C#N)cn1` [Example 64, 6-({(3S,4S)-4-(3,4-Dichloro-phenyl)-1-[1-(1-methyl-cyclopropanecarbonyl)-piperidine-4-carbonyl]-pyrrolidin-3-ylmethyl}-methyl-amino)-nicotinonitrile]: 7.50.
Same read-out and setting: the same measure for `CN(C[C@H]1CN(C(=O)C2CCN(C(=O)C3(C)CC3)CC2)C[C@@H]1c1ccc(Cl)c(Cl)c1)c1ccc(Cl)cn1` [Example 66, {4-[(3S,4S)-3-{[(5-Chloro-pyridin-2-yl)-methyl-amino]-methyl}-4-(3,4-dichloro-phenyl)-pyrrolidine-1-carbonyl]-piperidin-1-yl}-(1-methyl-cyclopropyl)-methanone]: 7.33.
Consider `CC(=O)N(C)C1(c2ccccc2)CCN(CCC[C@]2(c3ccc(Cl)c(Cl)c3)CCCN(C(=O)c3ccccc3)C2)CC1` [SR 142,801, Osanetant], for which the “activity on positive symptoms of schizophrenia” value in test [1] (altered behavior, delusion, hallucinations, extreme emotions, excited motor activity, incoherent speech) is given as “active”. Further, the “activity in the treatment of negative symptoms of schizophrenia” value in test [1] (depression, anhedonia, social isolation, memory and attention deficits) is “inactive”.
